Measurements reported in publication PMC11338949, “E41K mutation activates Bruton’s tyrosine kinase by stabilizing an inositol hexakisphosphate-dependent invisible dimer” (The Journal of Biological Chemistry, 2024).

Target: T1, full-length BTK^E41K (Mus musculus, UniProt P35991, E41K)
T1 construct: The full-length BTK was cloned into the pET28-SUMO vector; His-SUMO (N, cleaved yes); made in house; host or cells: E. coli BL21-DE3, co-transformed with YopH and Trigger factor
Test: Autophosphorylation assay by immunoblot (Y551) of purified full-length BTK
Type: biochemical
Conditions: 2 μM BTK, 100 μM ligand, compared to unliganded state
Protocol: The activation of full-length BTK in response to the ligand was determined from the autophosphorylation Y551 or total phosphotyrosine level. Before each reaction, 2 μM BTK was incubated with 100 μM ligand for 10 min. The phosphorylation reaction was performed at 25 °C in a buffer containing 25 mM Tris-Cl (pH 7.5), 2 mM ATP, 10 mM MgCl2, and 1 mM Na3VO4. The reaction was quenched with SDS–PAGE loading buffer. The autophosphorylation levels of full-length BTK were detected by immunoblot ([22]). The amount of BTK loaded was determined using an anti-BTK antibody. Densitometric analysis of immunoblots was performed using Fiji software ([52]).

T1 sequence (P35991 whole entry E41K): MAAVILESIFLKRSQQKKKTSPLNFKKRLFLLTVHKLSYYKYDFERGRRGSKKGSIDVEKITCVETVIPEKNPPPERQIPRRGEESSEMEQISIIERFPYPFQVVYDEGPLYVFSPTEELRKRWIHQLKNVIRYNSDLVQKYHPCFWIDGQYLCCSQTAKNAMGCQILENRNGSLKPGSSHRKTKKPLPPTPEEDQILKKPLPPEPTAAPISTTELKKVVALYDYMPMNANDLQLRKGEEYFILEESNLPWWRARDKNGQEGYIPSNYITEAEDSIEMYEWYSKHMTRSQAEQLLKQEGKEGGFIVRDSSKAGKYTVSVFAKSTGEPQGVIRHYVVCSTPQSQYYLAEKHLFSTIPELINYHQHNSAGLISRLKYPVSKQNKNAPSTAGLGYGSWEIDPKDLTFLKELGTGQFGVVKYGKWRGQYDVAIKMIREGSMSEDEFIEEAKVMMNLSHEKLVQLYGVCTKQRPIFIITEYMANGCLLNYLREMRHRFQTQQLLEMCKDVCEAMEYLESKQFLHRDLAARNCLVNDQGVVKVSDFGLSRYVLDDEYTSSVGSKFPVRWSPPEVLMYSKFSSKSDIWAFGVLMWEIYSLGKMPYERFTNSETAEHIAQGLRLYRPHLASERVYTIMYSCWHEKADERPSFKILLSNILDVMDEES

SMILES	Y551 phosphorylation of BTK^E41K
O=P(O)(O)O[C@@H]1[C@H](O)[C@H](O)[C@@H](OP(=O)(O)O)[C@H](OP(=O)(O)O)[C@H]1O [IP3]	does not induce
O=P(O)(O)OC1C(OP(=O)(O)O)C(OP(=O)(O)O)C(OP(=O)(O)O)C(OP(=O)(O)O)C1OP(=O)(O)O (centres unmarked) [IP6, inositol hexakisphosphate]	significantly increases
